Active and inactive are the calls of the source. No cut-off for these calls is given here.
Legend:
[1] = biological target: NACHT, LRR and PYD domains-containing protein 3 (Mus musculus, UniProt Q8R4B8); experiment: Inhibition of NLRP3 inflammasome in mouse J774.A1 cells assessed as inhibition of IL-1 beta secretion; format: cell-based
[2] = Cytotoxicity against mouse J774.A1 cells assessed as cell viability; format: toxicity, cell-based; conditions: read-out: TC50 (the source's name)
Mus musculus [3] = experiment: Anti-inflammatory activity against LPS-induced peritonitis C57BL/6 mouse model assessed as inhibition of IL-1 beta level in serum at 25 to 100 mg/kg, IG by ELISA analysis; format: functional, organism-based; conditions: dose 25-100 mg/kg
J774.A1 [4] = experiment: Inhibition of intracellular ROS generation in LPS primed mouse J774.A1 cells assessed as decrease in ROS positive cells at 5 uM pretreated for 1 hr followed by nigericin treatment for 1 hr by DCFH-DA staining based fluorescence microscopy (reference value: 52%); format: functional; parameters: scale not given: the % may be the effect or the level left; conditions: time 2 hrs
J774.A1 [5] = experiment: Inhibition of mitochondrial ROS production in LPS/nigericin stimulated mouse J774.A1 cells at 1 to 5 uM pretreated for 1 hr with compound and LPS followed by nigericin treatment for 1 hr by MitoSOX staining based immunofluorescence analysis; format: functional, cell-based; conditions: dose 1-5 µM, time 2.0 hrs
J774.A1 [6] = experiment: Inhibition of intracellular ROS generation in LPS primed mouse J774.A1 cells pretreated for 1 hr followed by nigericin treatment for 1 hr by DCFH-DA staining based fluorescence microscopy; format: functional, cell-based; conditions: dose 1-5 µM, time 2.0 hrs
J774.A1 [7] = experiment: Inhibition of intracellular ROS generation in LPS primed mouse J774.A1 cells assessed as decrease in ROS positive cells at 1 uM pretreated for 1 hr followed by nigericin treatment for 1 hr by DCFH-DA staining based fluorescence microscopy (reference value: 52%); format: functional; parameters: scale not given: the % may be the effect or the level left; conditions: time 2 hrs
[8] = biological target: NACHT, LRR and PYD domains-containing protein 3 (Mus musculus) (UniProt Q8R4B8); experiment: Inhibition of NLRP3 inflammasome activation in LPS primed mouse BMDM cells assessed as decrease in IL-1 beta production preincubated with compound for 1 hr followed by nigericin stimulation and measured after 1 hr by ELISA method; format: cell-based; conditions: dose 1-5 µM, time 2.0 hrs
NACHT, LRR and PYD domains-containing protein 3 (Mus musculus), sequence (Q8R4B8 whole entry, the tested form may be a part): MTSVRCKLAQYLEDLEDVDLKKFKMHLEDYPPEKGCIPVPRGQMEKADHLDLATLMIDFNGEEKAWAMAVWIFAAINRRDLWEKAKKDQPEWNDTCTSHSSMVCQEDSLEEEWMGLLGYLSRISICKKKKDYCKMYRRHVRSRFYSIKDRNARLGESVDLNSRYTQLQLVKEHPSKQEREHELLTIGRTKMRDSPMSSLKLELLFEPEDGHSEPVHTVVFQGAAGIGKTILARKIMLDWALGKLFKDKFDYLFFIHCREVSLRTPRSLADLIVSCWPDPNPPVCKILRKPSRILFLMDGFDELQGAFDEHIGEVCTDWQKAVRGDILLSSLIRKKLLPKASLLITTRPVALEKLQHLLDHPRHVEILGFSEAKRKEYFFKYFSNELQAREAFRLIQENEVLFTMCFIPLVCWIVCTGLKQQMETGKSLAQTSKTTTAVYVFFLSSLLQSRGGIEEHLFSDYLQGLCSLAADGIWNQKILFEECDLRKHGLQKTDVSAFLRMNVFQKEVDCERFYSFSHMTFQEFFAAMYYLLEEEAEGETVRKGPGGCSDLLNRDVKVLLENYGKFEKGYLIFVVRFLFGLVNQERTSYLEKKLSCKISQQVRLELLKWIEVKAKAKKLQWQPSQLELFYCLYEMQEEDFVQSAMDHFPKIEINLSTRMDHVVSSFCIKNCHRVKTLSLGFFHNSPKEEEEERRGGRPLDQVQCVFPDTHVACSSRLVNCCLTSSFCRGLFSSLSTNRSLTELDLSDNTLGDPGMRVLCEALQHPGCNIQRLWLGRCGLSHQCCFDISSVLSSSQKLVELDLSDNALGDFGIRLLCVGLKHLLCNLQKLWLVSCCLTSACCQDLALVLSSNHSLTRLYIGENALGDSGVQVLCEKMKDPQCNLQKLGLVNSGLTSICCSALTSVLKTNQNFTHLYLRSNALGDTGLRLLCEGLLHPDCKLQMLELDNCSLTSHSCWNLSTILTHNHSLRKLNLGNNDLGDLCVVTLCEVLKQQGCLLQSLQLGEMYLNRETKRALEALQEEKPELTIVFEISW

[9] = biological target: NACHT, LRR and PYD domains-containing protein 3 (Mus musculus) (UniProt Q8R4B8); experiment: Inhibition of NLRP3 inflammasome in LPS primed mouse J774.A1 cells assessed as inhibition of caspase-1 maturation at 1 to 5 uM preincubated with compound for 1 hr followed by nigericin stimulation and measured after 1 hr by Western blot analysis; format: cell-based; conditions: dose 1-5 µM, time 2.0 hrs
NLRP3 inflammasome = experiment: Selectivity index, ratio of TC50 for mouse J774.A1 cells to IC50 for NLRP3 inflammasome in mouse J774.A1 cells; format: toxicity, cell-based; conditions: read-out: Selectivity Index
Mus musculus [10] = experiment: Anti-inflammatory activity against LPS-induced peritonitis C57BL/6 mouse model assessed as inhibition of IL-1 beta level in peritoneal fluid at 25 to 100 mg/kg, IG by ELISA analysis; format: functional, organism-based; conditions: dose 25-100 mg/kg
[11] = biological target: NACHT, LRR and PYD domains-containing protein 3 (Mus musculus) (UniProt Q8R4B8); experiment: Inhibition of NLRP3 inflammasome in LPS primed mouse J774.A1 cells assessed as inhibition of IL-1 beta secretion in cell supernatant at 1 to 5 uM preincubated with compound for 1 hr followed by nigericin stimulation and measured after 1 hr by Western blot analysis; format: cell-based; conditions: dose 1-5 µM, time 2.0 hrs
[12] = biological target: NACHT, LRR and PYD domains-containing protein 3 (Mus musculus) (UniProt Q8R4B8); experiment: Inhibition of NLRP3 inflammasome activation in LPS primed mouse J774.A1 cells assessed as reduction in cleaved gasdermin-D at 1 to 5 uM preincubated with compound for 1 hr followed by nigericin stimulation and measured after 1 hr by ELISA method; format: cell-based; conditions: dose 1-5 µM, time 2.0 hrs
[13] = biological target: NACHT, LRR and PYD domains-containing protein 3 (Mus musculus) (UniProt Q8R4B8); experiment: Inhibition of NLRP3 inflammasome activation in LPS primed mouse J774.A1 cells assessed as reduction in lactate dehydrogenase at 1 to 5 uM preincubated with compound for 1 hr followed by nigericin stimulation and measured after 1 hr by ELISA method; format: cell-based; conditions: dose 1-5 µM, time 2.0 hrs
[14] = biological target: NACHT, LRR and PYD domains-containing protein 3 (Mus musculus) (UniProt Q8R4B8); experiment: Inhibition of NLRP3 inflammasome activation in LPS primed mouse J774.A1 cells assessed as decrease in IL-1 beta production preincubated with compound for 1 hr followed by nigericin stimulation and measured after 1 hr by ELISA method; format: cell-based; conditions: dose 1-5 µM, time 2.0 hrs

NACHT, LRR and PYD domains-containing protein 3, sequence (Q8R4B8 whole entry, the tested form may be a part): as above

SMILES	IC50 [1] [µM]	CC50 [2] [µM]	further results
Cc1c(S(=O)(=O)O)oc2c1C(=O)C(=O)c1c-2ccc2c1CCCC2(C)C [TANSHINONE IIA SULFONIC ACID]	4.3	> 100	
Cc1coc2c1C(=O)C(=O)c1c-2ccc2c1C(OC(=O)CCCCC1CCSS1)CCC2(C)C (centres undefined)	1.27	26.8	
Cc1coc2c1C(=O)C(=O)c1c-2ccc2c1C(OC(=O)c1ccc(O)cc1)CCC2(C)C (centres undefined)	2.57	14.5	
Cc1c(Br)oc2c1C(=O)C(=O)c1c-2ccc2c1CCCC2(C)C	5.21	> 100	
Cc1coc2c3ccc4c(c3c3ocnc3c12)CCCC4(C)C	> 40	> 100	
Cc1coc2c1C(=O)C(=O)c1c-2ccc2c1C(OC(=O)c1ccccc1O)CCC2(C)C (centres undefined)	0.48	30.8	Activity (Mus musculus [3]): Active; Activity (J774.A1 [4]): 56%; inhibition (J774.A1 [5]): Active; inhibition (J774.A1 [6]): Dose-Dependent Effect; Activity (J774.A1 [7]): 60%; inhibition [8]: Dose-Dependent Effect; inhibition [9]: Active; selectivity ratio (NLRP3 inflammasome): 62.1; Activity (Mus musculus [10]): Active; inhibition [11]: Active; inhibition [12]: Active; inhibition [13]: Active; inhibition [14]: Dose-Dependent Effect
COc1cc(/C=C/C(=O)OC2CCC(C)(C)c3ccc4c(c32)C(=O)C(=O)c2c(C)coc2-4)cc(OC)c1OC (centres undefined)	9.11	60.2	
Cc1coc2c1C(=O)C(=O)c1c-2ccc2c1C=CCC2(C)C	0.61	61.8	
Cc1coc2c1C(=O)C(=O)c1c-2ccc2c1C(OC(=O)c1cccc(O)c1)CCC2(C)C (centres undefined)	5.53	18.2	
Cc1coc2c1C(=O)C(=O)c1c-2ccc2c1CCCC2(C)C [TANSHINONE IIA]	5.15	> 100	
CC(=O)OC1CCC(C)(C)c2ccc3c(c21)C(=O)C(=O)c1c(C)coc1-3 (centres undefined)	1.25	36.5	
Cc1coc2c1C(=O)C(=O)c1c-2ccc2c1C(OC(=O)c1cc(Cl)ccc1Cl)CCC2(C)C (centres undefined)	3.6	19.7	
Cc1c(-c2ccccc2)oc2c1C(=O)C(=O)c1c-2ccc2c1CCCC2(C)C	> 40	> 100	

Reference: ChEMBL document CHEMBL5625275, “Design, synthesis and biological evaluation of tanshinone IIA derivatives as NLRP3 inflammasome inhibitors” (Bioorg Med Chem Lett, 2024)
